# Columns and labels:
# Format in all cases: in vivo
# Mythimna separata = assay: Insecticidal activity against Mythimna separata, Airbrush spray on maize leaf pieces; details: 72 h, 0.05 mg/L, 3 days after the administration, 3rd-instar larvae, read-out: mortality rate against Mythimna separata
# Method: (§1) After the compound to be determined was dissolved in a mixed solvent of acetone/methanol (1:1), it was diluted with water containing 0.1% (wt) Tween-80 to a desired concentration.
# (§2) Mythimna separata, Diamondback moth, Chilo suppressalis, Spodoptera exigua, Myzus persicae, and Franklinella occidentalis were used as targets, and the activity was tested by an Airbrush spray method.
# Determination method: maize leaves were cut into 2 cm leaf pieces, and the front and back of each leaf piece were sprayed under an Airbrush spray treatment pressure of 10 psi (approximate to 0.7 kg/cm^2) and with a spray volume of 0.5 mL. After drying in the shade, 10 3rd-instar larvae were inoculated for each treatment, and each treatment was repeated for 3 times. After the treatment, the leaf pieces were put into an observation chamber at 25° C. and with a relative humidity of 60% to 70%, and the number of living larvae was investigated 3 days after the administration of the compounds, and the mortality rates were calculated.
# Diamondback moth = assay: Insecticidal activity against Diamondback moth, Airbrush spray on cabbage leaf discs; details: Plutella xylostella, foliar, 72 h, 3 days after the administration; for mortality at 0.156 µg/mL: 0.156 mg/L, read-out: Mortality rate (%, 3 days after the administration) 0.156 mg/L; for mortality at 0.156 µg/mL / mortality at 0.313 µg/mL / mortality at 10 µg/mL: Diamondback moth; for mortality at 0.313 µg/mL: 0.313 mg/L, read-out: Mortality rate (%, 3 days after the administration) 0.313 mg/L; for mortality at 1.25 µg/mL: 1.25 mg/L, 3rd-instar larvae, read-out: mortality rate against Diamondback moth; for mortality at 10 µg/mL: 10 mg/L, read-out: Mortality rate (%, 3 days after the administration) 10 mg/L
# Method: as §1, §2
# Determination method: cabbage leaves were formed into leaf discs having a diameter of 2 cm using a puncher, and the front and back of each leaf disc were sprayed under an Airbrush spray treatment pressure of 10 psi (approximate to 0.7 kg/cm^2) and with a spray volume of 0.5 mL. After drying in the shade, 10 3rd-instar larvae were inoculated for each treatment, and each treatment was repeated for 3 times. After the treatment, the leaf discs were placed into an observation chamber at 25° C. and with a relative humidity of 60% to 70%, and the number of living larvae was investigated 3 days after the administration of the compounds, and the mortality rates were calculated.
# Chilo suppressalis = assay: Insecticidal activity against Chilo suppressalis, sprayed rice stems; details: 72 h, 0.625 mg/L, 3 days after the administration, 3rd-instar larvae, read-out: mortality rate against Chilo suppressalis
# Method: as §1, §2
# Determination method: 1) Preparation of rice seedlings: rice was cultured in a plastic small cup with a diameter of 4.5 cm and a height of 4 cm in a constant temperature room (the temperature was 26-28° C., the relative humidity was about 60-80%, and the illumination was 16hL:8hD), when the rice grown to a 4-5 leaf stage, robust and uniformly grown rice seedlings were selected for pharmaceutical treatment, and 3 replicates were set for each treatment. 2) Preparation of test insects: 3rd-instar larvae of Chilo suppressalis were continuously reared indoors. 3) Rice stems were sprayed and insects were introduced. A spray method was used to treat whole rice seedlings with uniform spray, and each treatment was 15 mL. Blank controls were treated firstly, and then the above operation was repeated in an order of experimental concentrations from low to high. After the spray treatment of the rice seedlings, they were placed in the shade to air-dry drug liquid, about 5 cm of the stem from a basal part of the stem was cut and fed to the test insects. A glass culture dish with a diameter of 90 mm was prepared, filter paper was placed on the bottom of the dish, then water was added to moisturize. About 5 rice stems were placed in each dish, 10 larvae were introduced, and the culture dish was closed with non-woven fabric and placed in the constant-temperature room for culture. 3 days after the administration, the number of residual live insects was investigated.
# Spodoptera exigua = assay: Insecticidal activity against Spodoptera exigua, leaf disc dipping feeding method; details: foliar, 72 h, 0.625 mg/L, 3 days after the administration, read-out: mortality rate against Spodoptera exigua
# Method: After the compound to be determined was dissolved in a mixed solvent of acetone/methanol (1:1), it was diluted with water containing 0.1% (wt) Tween-80 to a desired concentration. […]
# Determination method: the activity was tested by using a leaf disc dipping feeding method. Leaf discs were dipped in a drug solution for 10 s, and placed in a culture dish after being air-dried, there were 4 discs in each dish, and a filter paper was placed in the culture dish for moisture retention. 10 test insects of Spodoptera exigua were introduced to each dish, with 3 replicates.
# They were placed in a light incubator for culture at a temperature of 25° C. and an illumination of 14hL:10hD. On the 1st, 2nd, and 3rd day after the administration, the number of dead Spodoptera exigua was investigated and the mortality rate was calculated.
# Myzus persicae = assay: Insecticidal activity against Myzus persicae, Airbrush spray on cabbage leaves; details: 50 mg/L, after 48 h, read-out: mortality rate against Myzus persicae
# Method: as §1, §2
# Determination method: a culture dish with a diameter of 6 cm was taken, the bottom of the dish was covered by a layer of filter paper, and an appropriate amount of tap water was added to moisturize the paper. Cabbage leaves with an appropriate size (the diameter was about 3 cm) and 15-30 aphids grown were cut from cabbage plants used to culture Myzus persicae, winged aphids and aphids on the front of the leave were removed, and it was placed in the culture dish while the back of the leave was upward. The pressure of airbrush spray treatment was 10 psi (about 0.7 kg/cm^2), the liquid spray volume was 0.5 mL, and there were 3 replicates for each treatment. After the treatment, the leave was put into an observation room for culture at 25° C. and a relative humidity of 60-70%. After 48 h, the number of live insects was investigated and the mortality rate was calculated.
# [1] = system: Franklinella occidentalis; assay: Insecticidal activity against Franklinella occidentalis nymphs, sprayed bean leaves
# Method: as §1, §2
# Determination method: fresh bean leaves cultivated in a greenhouse were selected, a hand-held Airbrush sprayer was used to spray uniformly, each treatment was 1 mL, and after being air-dried naturally, the leaves were placed in a finger-shaped tube. Neat and healthy Franklinella occidentalis nymphs were introduced, there were 15 nymphs for each treatment, 3 replicates were set for the experiment, and water treatment was set as a blank control. After the treatment, the leaves were put into an indoor culture room for culture at 24° C., a relative humidity of 60-70%, and natural light. After 72 h, the number of live insects was investigated and the mortality rate was calculated.
# cat flea = assay: Insecticidal experiment on cat flea, thin film in culture dish; details: Ctenocephalides felis, 72 h, read-out: mortality rate, cat flea
# Method: 4 mg of the compound to be determined was dissolved in 40 mL of acetone to obtain an acetone solution with a concentration of 100 mg/L. 400 μL of the drug solution was applied on the bottom and sides of a culture dish with an inner diameter of 5.3 cm, then after acetone was evaporated, a thin film of the compound of the present invention was made on the inner wall of the culture dish. The inner wall of the culture dish used was 40 cm^2, and the treatment dosage was 1 μg/cm^2. 10 adult cat fleas (mixed male and female) were put into the dish, and it was stored in a constant-temperature room at 25° C. after being covered. The number of dead insects after 72 h was checked and the mortality rate was calculated. The experiment was repeated for 3 times.
compound,measurement,setting,value
C=CCN(C(=O)c1ccc(F)cc1)c1cccc(C(=O)Nc2c(Br)cc(C(F)(C(F)(F)F)C(F)(F)F)cc2C(F)(F)F)c1F [Compound 7],mortality at 0.05 µg/mL,Mythimna separata,> 90%
same,mortality at 0.156 µg/mL,Diamondback moth,100%
same,mortality at 0.313 µg/mL,Diamondback moth,100%
same,mortality at 1.25 µg/mL,Diamondback moth,> 90%
same,mortality at 10 µg/mL,Diamondback moth,100%
same,mortality at 0.625 µg/mL,Chilo suppressalis,> 90%
same,mortality at 0.625 µg/mL,Spodoptera exigua,> 90%
same,mortality at 50 µg/mL,Myzus persicae,> 90%
same,"Mortality rate (%, 3 days after the administration) 10 mg/L",[1],91.11%
same,"Mortality rate (%, 3 days after the administration) 100 mg/L",[1],100%
same,mortality at 1 µg/cm2,cat flea,> 90%
C#CCN(C(=O)c1ccc(F)nc1)c1cccc(C(=O)Nc2c(I)cc(C(F)(C(F)(F)F)C(F)(F)F)cc2C(F)(F)F)c1F [Compound 48],mortality at 0.05 µg/mL,Mythimna separata,> 90%
same,mortality at 0.156 µg/mL,Diamondback moth,100%
same,mortality at 0.313 µg/mL,Diamondback moth,100%
same,mortality at 1.25 µg/mL,Diamondback moth,> 90%
same,mortality at 10 µg/mL,Diamondback moth,100%
same,mortality at 0.625 µg/mL,Chilo suppressalis,> 90%
same,mortality at 0.625 µg/mL,Spodoptera exigua,> 90%
same,mortality at 50 µg/mL,Myzus persicae,> 90%
same,"Mortality rate (%, 3 days after the administration) 10 mg/L",[1],100%
same,"Mortality rate (%, 3 days after the administration) 100 mg/L",[1],100%
same,mortality at 1 µg/cm2,cat flea,> 90%
C#CCN(C(=O)c1ccc(F)nc1)c1cccc(C(=O)Nc2c(Br)cc(C(F)(C(F)(F)F)C(F)(F)F)cc2C(F)(F)F)c1F [Compound 47],mortality at 0.05 µg/mL,Mythimna separata,> 90%
same,mortality at 0.156 µg/mL,Diamondback moth,100%
same,mortality at 0.313 µg/mL,Diamondback moth,100%
same,mortality at 1.25 µg/mL,Diamondback moth,> 90%
same,mortality at 10 µg/mL,Diamondback moth,100%
same,mortality at 0.625 µg/mL,Chilo suppressalis,> 90%
same,mortality at 0.625 µg/mL,Spodoptera exigua,> 90%
same,mortality at 50 µg/mL,Myzus persicae,> 90%
same,"Mortality rate (%, 3 days after the administration) 10 mg/L",[1],100%
same,"Mortality rate (%, 3 days after the administration) 100 mg/L",[1],100%
same,mortality at 1 µg/cm2,cat flea,> 90%
C=CCN(C(=O)c1ccc(F)nc1)c1cccc(C(=O)Nc2c(Br)cc(C(F)(C(F)(F)F)C(F)(F)F)cc2C(F)(F)F)c1F [Compound 19],mortality at 0.05 µg/mL,Mythimna separata,> 90%
same,mortality at 0.156 µg/mL,Diamondback moth,100%
same,mortality at 0.313 µg/mL,Diamondback moth,100%
same,mortality at 1.25 µg/mL,Diamondback moth,> 90%
same,mortality at 10 µg/mL,Diamondback moth,100%
same,mortality at 0.625 µg/mL,Chilo suppressalis,> 90%
same,mortality at 0.625 µg/mL,Spodoptera exigua,> 90%
same,mortality at 50 µg/mL,Myzus persicae,> 90%
same,"Mortality rate (%, 3 days after the administration) 10 mg/L",[1],100%
same,"Mortality rate (%, 3 days after the administration) 100 mg/L",[1],100%
same,mortality at 1 µg/cm2,cat flea,> 90%
C#CCN(C(=O)c1ccccc1)c1cccc(C(=O)Nc2c(Br)cc(C(F)(C(F)(F)F)C(F)(F)F)cc2C(F)(F)F)c1F [Compound 31],mortality at 0.05 µg/mL,Mythimna separata,> 90%
same,mortality at 0.156 µg/mL,Diamondback moth,100%
same,mortality at 0.313 µg/mL,Diamondback moth,100%
same,mortality at 1.25 µg/mL,Diamondback moth,> 90%
same,mortality at 10 µg/mL,Diamondback moth,100%
same,mortality at 0.625 µg/mL,Chilo suppressalis,> 90%
same,mortality at 0.625 µg/mL,Spodoptera exigua,> 90%
same,mortality at 50 µg/mL,Myzus persicae,> 90%
same,"Mortality rate (%, 3 days after the administration) 10 mg/L",[1],97.78%
same,"Mortality rate (%, 3 days after the administration) 100 mg/L",[1],100%
same,mortality at 1 µg/cm2,cat flea,> 90%

# From patent US20240199552A1, “AMIDE COMPOUND AND USE THEREOF” (Metisa Biotechnology Co., Ltd, priority 2021, published 2024)
